Laboratory results from ChEMBL document CHEMBL3885881, “DrugMatrix”.

Species: Rattus norvegicus
Assay: DrugMatrix - Regimen: Daily Repeat
Format: toxicity, organism-based, Sprague-Dawley
Parameters: regimen Daily Repeat, gender Male, age 6-8 weeks
Conditions: in vivo, po, route oral GAVAGE, vehicle .5 % CMC; for ABSOLUTE BASOPHIL / ABSOLUTE EOSINOPHIL / ABSOLUTE LYMPHOCYTE / ABSOLUTE MONOCYTE / ABSOLUTE SEGMENTED NEUTROPHIL / BASOPHIL / EOSINOPHIL / ERYTHROCYTE COUNT / HEMATOCRIT / HEMOGLOBIN / LEUKOCYTE COUNT / LYMPHOCYTE / MEAN CORPUSCULAR HEMOGLOBIN / MEAN CORPUSCULAR HEMOGLOBIN CONCENTRATION / MEAN CORPUSCULAR VOLUME / MONOCYTE / NEUTROPHIL / NUCLEATED RED BLOOD CELLS / PLATELET COUNT: tissue Blood; for ALANINE AMINOTRANSFERASE / ALBUMIN / ALKALINE PHOSPHATASE / ASPARTATE AMINOTRANSFERASE / BLOOD UREA NITROGEN / CARBON DIOXIDE / CHLORIDE / CHOLESTEROL / CREATINE PHOSPHOKINASE / CREATININE / GLUCOSE / LACTATE DEHYDROGENASE / LIPASE / PHOSPHORUS / POTASSIUM / SODIUM / TOTAL BILIRUBIN / TOTAL PROTEIN / URIC ACID: tissue Plasma
[1] = 0 mg/kg, 72 h, dose level Control, time 3 day
[2] = 0 mg/kg, 120 h, dose level Control, time 5 day
[3] = 50 mg/kg, 72 h, dose level Low, time 3 day

CN(C)[C@@H]1C(O)=C(C(N)=O)C(=O)[C@@]2(O)C(O)=C3C(=O)c4c(O)ccc(Cl)c4[C@@](C)(O)[C@H]3C[C@@H]12 [CHLORTETRACYCLINE]
ABSOLUTE BASOPHIL [1]: 0 CELLS/uL
ABSOLUTE EOSINOPHIL [1]: 32.5 CELLS/uL
ABSOLUTE LYMPHOCYTE [1]: 13494.17 CELLS/uL
ABSOLUTE MONOCYTE [1]: 474 CELLS/uL
ABSOLUTE SEGMENTED NEUTROPHIL [1]: 1932.67 CELLS/uL
BASOPHIL [1]: 0%
EOSINOPHIL [1]: 0.17%
ERYTHROCYTE COUNT [1]: 5.45 x10E6/uL
HEMATOCRIT [1]: 34.32%
HEMOGLOBIN [1]: 13.82 G/DL
LEUKOCYTE COUNT [1]: 15.93 x10E3/uL
LYMPHOCYTE [1]: 84.83%
MEAN CORPUSCULAR HEMOGLOBIN [1]: 25.38 pg
MEAN CORPUSCULAR HEMOGLOBIN CONCENTRATION [1]: 40.27 G/DL
MEAN CORPUSCULAR VOLUME [1]: 63.05 fL
MONOCYTE [1]: 3%
NEUTROPHIL [1]: 12%
NUCLEATED RED BLOOD CELLS [1]: 0.67 /100WBC
PLATELET COUNT [1]: 1188.5 x10E3/uL
ALANINE AMINOTRANSFERASE [1]: 54.83 u/L
ALBUMIN [1]: 4.22 G/DL
ALKALINE PHOSPHATASE [1]: 427.67 u/L
ASPARTATE AMINOTRANSFERASE [1]: 86.5 u/L
BLOOD UREA NITROGEN [1]: 15.33 mg/dL
CARBON DIOXIDE [1]: 24.83 mmol/L
CHLORIDE [1]: 102.33 MEQ/L
CHOLESTEROL [1]: 71.67 mg/dL
CREATINE PHOSPHOKINASE [1]: 442.5 u/L
CREATININE [1]: 0.19 mg/dL
GLUCOSE [1]: 160.67 mg/dL
LACTATE DEHYDROGENASE [1]: 236.5 u/L
LIPASE [1]: 9 u/L
PHOSPHORUS [1]: 11.97 mg/dL
POTASSIUM [1]: 6.2 MEQ/L
SODIUM [1]: 142.85 MEQ/L
TOTAL BILIRUBIN [1]: 0.2 mg/dL
TOTAL PROTEIN [1]: 5.8 G/DL
URIC ACID [1]: 1.3 mg/dL
ABSOLUTE BASOPHIL [2]: 0 CELLS/uL
ABSOLUTE EOSINOPHIL [2]: 114.5 CELLS/uL
ABSOLUTE LYMPHOCYTE [2]: 14614 CELLS/uL
ABSOLUTE MONOCYTE [2]: 173 CELLS/uL
ABSOLUTE SEGMENTED NEUTROPHIL [2]: 1048.5 CELLS/uL
BASOPHIL [2]: 0%
EOSINOPHIL [2]: 0.67%
ERYTHROCYTE COUNT [2]: 5.66 x10E6/uL
HEMATOCRIT [2]: 35.52%
HEMOGLOBIN [2]: 14.27 G/DL
LEUKOCYTE COUNT [2]: 15.95 x10E3/uL
LYMPHOCYTE [2]: 91.33%
MEAN CORPUSCULAR HEMOGLOBIN [2]: 25.23 pg
MEAN CORPUSCULAR HEMOGLOBIN CONCENTRATION [2]: 40.2 G/DL
MEAN CORPUSCULAR VOLUME [2]: 62.7 fL
MONOCYTE [2]: 1.17%
NEUTROPHIL [2]: 6.83%
NUCLEATED RED BLOOD CELLS [2]: 0.33 /100WBC
PLATELET COUNT [2]: 1229 x10E3/uL
ALANINE AMINOTRANSFERASE [2]: 58.67 u/L
ALBUMIN [2]: 4.32 G/DL
ALKALINE PHOSPHATASE [2]: 382.5 u/L
ASPARTATE AMINOTRANSFERASE [2]: 81.67 u/L
BLOOD UREA NITROGEN [2]: 17.67 mg/dL
CARBON DIOXIDE [2]: 27.17 mmol/L
CHLORIDE [2]: 102.33 MEQ/L
CHOLESTEROL [2]: 63.67 mg/dL
CREATINE PHOSPHOKINASE [2]: 227.67 u/L
CREATININE [2]: 0.23 mg/dL
GLUCOSE [2]: 155.33 mg/dL
LACTATE DEHYDROGENASE [2]: 146.5 u/L
LIPASE [2]: 10.67 u/L
PHOSPHORUS [2]: 11.93 mg/dL
POTASSIUM [2]: 6.85 MEQ/L
SODIUM [2]: 143.95 MEQ/L
TOTAL BILIRUBIN [2]: 0.18 mg/dL
TOTAL PROTEIN [2]: 6.02 G/DL
URIC ACID [2]: 1.63 mg/dL
ABSOLUTE BASOPHIL [3]: 0 CELLS/uL
ABSOLUTE EOSINOPHIL [3]: 126.67 CELLS/uL
ABSOLUTE LYMPHOCYTE [3]: 10511.33 CELLS/uL
ABSOLUTE MONOCYTE [3]: 344.33 CELLS/uL
ABSOLUTE SEGMENTED NEUTROPHIL [3]: 817.67 CELLS/uL
BASOPHIL [3]: 0%
EOSINOPHIL [3]: 1%
ERYTHROCYTE COUNT [3]: 5.49 x10E6/uL
HEMATOCRIT [3]: 34.47%
HEMOGLOBIN [3]: 13.47 G/DL
LEUKOCYTE COUNT [3]: 11.8 x10E3/uL
LYMPHOCYTE [3]: 89%
MEAN CORPUSCULAR HEMOGLOBIN [3]: 24.57 pg
MEAN CORPUSCULAR HEMOGLOBIN CONCENTRATION [3]: 39.13 G/DL
MEAN CORPUSCULAR VOLUME [3]: 62.87 fL
MONOCYTE [3]: 3%
NEUTROPHIL [3]: 7%
NUCLEATED RED BLOOD CELLS [3]: 0 /100WBC
PLATELET COUNT [3]: 1083.33 x10E3/uL
ALANINE AMINOTRANSFERASE [3]: 50.33 u/L
ALBUMIN [3]: 4.07 G/DL
ALKALINE PHOSPHATASE [3]: 403.67 u/L
ASPARTATE AMINOTRANSFERASE [3]: 84.67 u/L
BLOOD UREA NITROGEN [3]: 16.67 mg/dL
CARBON DIOXIDE [3]: 26 mmol/L
CHLORIDE [3]: 103.67 MEQ/L
CHOLESTEROL [3]: 73.33 mg/dL
CREATINE PHOSPHOKINASE [3]: 273.67 u/L
CREATININE [3]: 0.15 mg/dL
GLUCOSE [3]: 157.67 mg/dL
LACTATE DEHYDROGENASE [3]: 157.33 u/L
LIPASE [3]: 9.33 u/L
PHOSPHORUS [3]: 12.13 mg/dL
POTASSIUM [3]: 6.6 MEQ/L
SODIUM [3]: 146.1 MEQ/L
TOTAL BILIRUBIN [3]: 0.2 mg/dL
TOTAL PROTEIN [3]: 5.67 G/DL
URIC ACID [3]: 1.77 mg/dL
